ChEMBL document CHEMBL3785074, “Molecular modeling and snake venom phospholipase A2 inhibition by phenolic compounds: Structure-activity relationship” (Eur J Med Chem, 2016)
Calls of active or inactive are those of the source. The calls are words filed in the database; no cut-off is given here.

Tests used:
Naja kaouthia [1] = tested on: Naja kaouthia
Naja kaouthia [2] = tested on: Naja kaouthia; remark: listed apart in the source
Description: Protective activity against Naja kaouthia venom-induced mortality in Swiss albino mouse at 100 mmol, iv by measuring venom LD50 administered immediately after venom injection measured after 24 hrs (Rvb = 2.82 ug)

Daboia russelii [3] = tested on: Daboia russelii
Daboia russelii [4] = experiment: (§1) Protective activity against Daboia russellii venom-induced mortality in Swiss albino mouse at 100 mmol, iv by measuring venom LD50 administered immediately after venom injection measured after 24 hrs (reference value: 2.28ug); type: functional
[5] = Protective activity against Daboia russellii venom-induced hemorrhage in intradermally dosed Swiss albino mouse at 100 mmol assessed as hemorhagic lesion by measuring minimal […] dose preincubated with venom for 1 hr followed by administration to mouse measured after 24 hrs (reference value: 5 ug); type: functional, Daboia russelii
[6] = Protective activity against Daboia russellii venom-induced hemorrhage in Swiss albino mouse at 100 mmol, iv assessed as hemorhagic lesion administered immediately after venom injection measured after 24 hrs relative to untreated control; type: functional, Daboia russelii
[7] = Lipophilicity, log P of compound; type: physicochemical; details: octanol/water; read-out: logP
[8] = Protective activity against Daboia russellii venom-induced hemorrhage in intradermally dosed Swiss albino mouse at 100 mmol assessed as hemorhagic lesion preincubated with venom for 1 hr followed by administration to mouse measured after 24 hrs relative to untreated control; type: functional, Daboia russelii
[9] = (§2) Protective activity against Daboia russellii venom-induced hemorrhage in Swiss albino mouse at 100 mmol, iv assessed as hemorhagic lesion by measuring […] administered immediately after venom injection measured after 24 hrs (Rvb =5 ug); type: functional, Daboia russelii
[10] = Protective activity against Daboia russellii venom-induced mortality by measuring venom LD50 in Swiss albino mouse at 100 mmol, iv preincubated with venom for 1 hr followed by administration to mouse measured after 24 hrs (reference value: 2.28 ug); type: functional, Daboia russelii
[11] = as §1; type: functional, Daboia russelii
[12] = Protective activity against Naja kaouthia venom-induced mortality in Swiss albino mouse at 100 mmol, iv preincubated with venom for 1 hr followed by administration to mouse measured after 24 hrs relative to untreated control; type: functional
[13] = Protective activity against Naja kaouthia venom-induced mortality in Swiss albino mouse at 100 mmol, iv by measuring venom LD50 administered immediately after venom injection measured after 24 hrs (reference value: 2.82 ug); type: functional
[14] = Protective activity against Naja kaouthia venom-induced mortality in Swiss albino mouse at 100 mmol, iv by measuring venom LD50 preincubated with venom for 1 hr followed by administration to mouse measured after 24 hrs (reference value: 2.82 ug); type: functional
[15] = Protective activity against Daboia russellii venom-induced mortality in Swiss albino mouse at 100 mmol, iv administered immediately after venom injection measured after 24 hrs relative to untreated control; type: functional, Daboia russelii
[16] = Protective activity against Naja kaouthia venom-induced mortality in Swiss albino mouse at 100 mmol, iv administered immediately after venom injection measured after 24 hrs relative to untreated control; type: functional
[17] = Protective activity against Daboia russellii venom-induced mortality in Swiss albino mouse at 100 mmol, iv preincubated with venom for 1 hr followed by administration to mouse measured after 24 hrs relative to untreated control; type: functional, Daboia russelii
Daboia russelii [18] = experiment: as §2; type: functional
[19] = Protective activity against Daboia russellii venom-induced mortality in iv dosed Swiss albino mouse administered 30 mins after venom injection relative to untreated control; type: functional, Daboia russelii
Daboia russelii [20] = experiment: Protective activity against Daboia russellii venom-induced mortality in iv dosed Swiss albino mouse administered immediately after venom injection relative to untreated control; type: functional, organism-based

Row | SMILES | LD50 (Naja kaouthia [1]) | LD50 (Naja kaouthia [2]) | LD50 (Daboia russelii [3]) | LD50 (Daboia russelii [4]) | MHC [5] [µg] | fold change (FC) [6] | logP [7] | fold change (FC) [8] | MHC [9] [µg] | LD50 [10] [µg] | LD50 [11] [µg] | fold change (FC) [12] | LD50 [13] [µg] | LD50 [14] [µg] | fold change (FC) [15] | fold change (FC) [16] | fold change (FC) [17] | MHC (Daboia russelii [18]) | Activity [19] [%] | Activity (Daboia russelii [20])
1 | COc1ccccc1OC [1,2-DIMETHOXYBENZENE] | inactive | inactive | inactive | inactive | 10 | 1 | 1.44 | 2 | 5 | – | – | – | – | – | – | – | – | – | – | –
2 | COc1cc(C=O)ccc1O [VANILLIN] | – | – | – | – | 20 | 1 | 1.87 | 4 | 5 | 22 | 150 | 3.2 | 10 | 9 | 3.75 | 2 | 9.8 | – | – | –
3 | O=Cc1cccc(O)c1 [3-HYDROXYBENZALDEHYDE] | – | – | – | – | 30 | 3 | – | 6 | 15 | – | – | 1 | – | – | 1.25 | – | 2.6 | – | – | –
4 | COc1ccc(C=O)cc1 | inactive | inactive | inactive | inactive | 15 | 1 | 1.19 | 3 | 5 | – | – | – | – | – | – | – | – | – | – | –
5 | COc1ccccc1 [ANISOLE] | inactive | inactive | inactive | inactive | 10 | 1 | 1.44 | 2 | 5 | – | – | – | – | – | – | – | – | – | – | –
6 | O=Cc1cc(O)ccc1O | – | inactive | – | – | 35 | 3 | 1.53 | 7 | 15 | 5 | 50 | 1 | – | 3 | 1.25 | – | 2.1 | – | – | –
7 | COc1ccc(C=O)cc1O [ISOVANILLIN] | inactive | inactive | inactive | inactive | 10 | 2 | – | 2 | 10 | – | – | – | – | – | – | – | – | – | – | –
8 | CCCOc1ccc(C=O)c(O)c1 | inactive | inactive | inactive | inactive | 5 | – | – | 1 | – | – | – | – | – | – | – | – | – | inactive | – | –
9 | COc1ccc(/C=N/O)c(OC)c1 | – | inactive | – | – | 5 | – | – | 1 | – | 6 | 50 | 1 | – | 3 | 1.25 | – | 2.6 | inactive | – | –
10 | COc1ccc(C=O)c(OC)c1 | – | – | – | – | 25 | 2 | 0.97 | 5 | 10 | 22 | 100 | 3.2 | 8 | 9 | 2.5 | 1.6 | 9.8 | – | 40 | Active
11 | COc1ccccc1C=O [2-METHOXYBENZALDEHYDE] | – | inactive | – | – | 10 | 1 | 1.15 | 2 | 5 | 18 | 100 | 2.1 | – | 6 | 2.5 | – | 8 | – | – | –
12 | Oc1ccccc1O [CATECHOL] | inactive | inactive | inactive | inactive | 25 | 3 | 1.48 | 5 | 15 | – | – | – | – | – | – | – | – | – | – | –
13 | COc1ccc(O)c(C=O)c1 | – | – | – | – | 20 | 2 | 1.93 | 4 | 10 | 11 | 100 | 2.1 | 8 | 6 | 2.5 | 1.6 | 4.9 | – | – | –
14 | COc1cccc(C=O)c1 | – | inactive | – | – | 15 | 1 | 1.15 | 3 | 5 | 25 | 100 | 3.2 | – | 9 | 2.5 | – | 11.2 | – | – | –
15 | CCOc1cc(C=O)ccc1O [ETHYL VANILLIN] | – | – | – | – | 15 | 2 | 1.81 | 3 | 10 | 11 | 100 | 1 | 10 | 3 | 2.5 | 2 | 4.9 | – | – | –
16 | O=Cc1cccc(O)c1O | – | inactive | – | inactive | 40 | 2 | 1.19 | 8 | 10 | 5 | – | 1 | – | 3 | – | – | 2.1 | – | – | –
17 | CCOc1ccc(C=O)c(O)c1 | inactive | inactive | inactive | inactive | 5 | – | – | 1 | – | – | – | – | – | – | – | – | – | inactive | – | –
18 | CCCCCCCOc1ccc(C=O)c(O)c1 | – | inactive | – | inactive | 5 | – | – | 1 | – | 6 | – | 1 | – | 3 | – | – | 2.6 | inactive | – | –
19 | O=Cc1ccc(O)c(O)c1 [PROTOCATECHUALDEHYDE] | – | inactive | – | – | 60 | 4 | 2 | 12 | 20 | 6 | 50 | 1 | – | 3 | 1.25 | – | 2.6 | – | – | –
20 | O=Cc1ccc(O)cc1 [4-HYDROXYBENZALDEHYDE] | – | inactive | – | – | 15 | 2 | 1.15 | 3 | 10 | 6 | 50 | 1 | – | 3 | 1.25 | – | 2.6 | – | – | –
21 | COc1cccc(OC)c1 [1,3-DIMETHOXYBENZENE] | inactive | inactive | inactive | inactive | 10 | 1 | 1.44 | 2 | 5 | – | – | – | – | – | – | – | – | – | – | –
22 | Oc1ccccc1 [PHENOL] | inactive | inactive | inactive | inactive | 10 | 1 | 1.76 | 2 | 5 | – | – | – | – | – | – | – | – | – | – | –
23 | COc1ccc(OC)cc1 [1,4-DIMETHOXYBENZENE] | inactive | inactive | inactive | inactive | 10 | 1 | 1.47 | 2 | 5 | – | – | – | – | – | – | – | – | – | – | –
24 | Oc1cccc(O)c1 [RESORCINOL] | inactive | inactive | inactive | inactive | 10 | 2 | 1.48 | 2 | 10 | – | – | – | – | – | – | – | – | – | – | –
25 | Oc1ccc(O)cc1 [HYDROQUINONE] | inactive | inactive | inactive | inactive | 20 | 2 | 1.48 | 4 | 10 | – | – | – | – | – | – | – | – | – | – | –
